Measured values published in patent publication US4402978A, “Gastro-protecting activity of substituted derivatives of 4-phenyl-4-oxo-2-hydroxy-butanoic acid” (Roussel-Uclaf, priority 1980, dated 1983).

How the values were obtained:
[1] = Determination of Acute Toxicity (oral LD50 in mice); settings: mouse, in vivo
Protocol: (2) Determination of Acute Toxicity
The lethal dose LD50 of the derivatives of certain examples were evaluated after administration by the oral route in mice.

[2] = tested on: ulcers in rats in the stomach region; assay: Determination of anti-ulcer activity (Shay method, ulcers induced in rats by pyloric ligation); type: in vivo; settings: via the mouth, 16 hours after treatment
Description: (1) Determination of anti-ulcer activity
The method used is described by Shay et al. in Gastroenterology, 5, 43, (1945).
The Shay method consists of inducing ulcers in rats in the stomach region by pyloric ligation.
The animals are anesthetized with ether. A longitudinal incision is made, 1 cm below the sternum; the glandular part of the stomach and the duodenum are exposed, and a ligature is placed several mm below the pylorus. The muscular sheet is left as it is and the skin is sutured with 2 clips.
The animals immediately receive the dispersive or the substance to be studied, via the mouth, in a volume of 0.5 ml/100 g and are kept without food or drink until sacrificed, 16 hours after the treatment, by carotid bleeding.
Before removal of the stomach, a ligature is placed above the cardia.
The gastric liquid is collected for measurement of pH.
The stomach is then opened along the major curvature, rinsed with physiological serum, and spread out on millimeter graph paper to be examined under a binocular magnifier.
The severity of the lesions, graded 0 to 4, is macroscopically evaluated for each stomach.
For each group of rats, the mean intensity of the ulcerations is determined, and the protection is calculated as the ratio of the mean index for the treated group to the mean index for the control group.
The pH values of the gastric liquid are likewise determined for the treated and control animals.

Compound	LD50 [1]	Ulcerations, % of protection with respect to controls ([2]; 0.8 mg/kg)	pH of gastric liquid, treated animals ([2]; 0.8 mg/kg)	Ulcerations, % of protection with respect to controls ([2]; 4 mg/kg)	pH of gastric liquid, treated animals ([2]; 4 mg/kg)	Ulcerations, % of protection with respect to controls ([2]; 20 mg/kg)	pH of gastric liquid, treated animals ([2]; 20 mg/kg)	Ulcerations, % of protection with respect to controls ([2]; 100 mg/kg)	pH of gastric liquid, treated animals ([2]; 100 mg/kg)	Ulcerations, % of protection with respect to controls ([2]; 1 mg/kg)	pH of gastric liquid, treated animals ([2]; 1 mg/kg)
COc1ccc(C(=O)CC(O)C(=O)O)cc1OC (stereo not shown) [Example 1, 4-(3,4-dimethoxyphenyl)-4-oxo-2-hydroxy-butanoic acid]	> 1000 mg/kg	27%	3.4	72%	3.0	72%	2.3	–	–	–	–
O=C(CC(O)C(=O)O)c1ccc(Cl)cc1 (stereo not shown) [Example 2, 4-(4-chlorophenyl)-4-oxo-2-hydroxy-butanoic acid]	> 1000 mg/kg	–	–	25%	3.5	72%	3.0	–	–	–	–
O=C(CC(O)C(=O)O)c1ccc(Cl)c(Cl)c1 (stereo not shown) [Example 3, 4-(3,4-dichlorophenyl)-4-oxo-2-hydroxy-butanoic acid]	> 1000 mg/kg	–	–	–	–	36%	3.2	91%	4.2	–	–
O=C(CC(O)C(=O)O)c1ccc(Cl)cc1Cl (stereo not shown) [Example 4, 4-(2,4-dichlorophenyl)-4-oxo-2-hydroxy-butanoic acid]	> 1000 mg/kg	–	–	–	–	9%	2.9	91%	4.4	–	–
O=C(CC(O)C(=O)O)c1ccc(Br)cc1 (stereo not shown) [Example 5, 4-(4-bromophenyl)-4-oxo-2-hydroxy-butanoic acid]	> 1000 mg/kg	–	–	–	–	40%	3.1	95%	3.4	–	–
O=C(CC(O)C(=O)O)c1ccc([N+](=O)[O-])cc1 (stereo not shown) [Example 8, 4-(4-nitrophenyl)-4-oxo-2-hydroxy-butanoic acid]	> 1000 mg/kg	–	–	–	–	–	–	49%	3.0	–	–
COc1cc(OC)cc(C(=O)CC(O)C(=O)O)c1 (stereo not shown) [Example 11, 4-(3,5-dimethoxyphenyl)-4-oxo-2-hydroxy-butanoic acid]	> 1000 mg/kg	–	–	50%	2.0	60%	2.0	88%	3.0	53%	1.9
O=C(CC(O)C(=O)O)c1ccccc1[N+](=O)[O-] (stereo not shown) [Example 13, 4-(2-nitrophenyl)-4-oxo-2-hydroxy-butanoic acid]	> 1000 mg/kg	–	–	–	–	–	–	–	–	–	–
